≈ marks a conversion by molar mass, not a printed value.
Experiments:
[1] = Lipophilicity, log P of the compound; type: physicochemical; conditions: octanol/water
[2] = system: Mycobacterium tuberculosis; assay: microbe, parasite or virus in culture; type: functional; conditions: H37Rv ATCC 27294, 672 h
Description: Antitubercular activity against Mycobacterium tuberculosis H37Rv ATCC 27294 after 28 days by agar dilution method

[3] = Cytotoxicity against HEK293T cells at 50 ug/ml after 72 hrs by MTT assay; type: cell-based, HEK-293T; conditions: human, read-out: INH
[4] = Selectivity index, ratio of cytotoxicity against HEK293T cells to antitubercular activity against Mycobacterium tuberculosis H37Rv ATCC 27294; type: toxicity, cell-based, HEK-293T; conditions: human, read-out: Selectivity Index

Compound | logP [1] | MIC [2] | cytotoxicity at 72 h, 50 ug/ml [3] | selectivity ratio [4]
CC(C)(C)c1ccc(-c2cn(CC(=O)NC34CC5CC(CC(C5)C3)C4)nn2)cc1 | 4.46 | 50 µg/mL (≈ 127 µM) | – | –
O=C(Cn1cc(-c2ccsc2)nn1)NC12CC3CC(CC(C3)C1)C2 | 2.74 | 50 µg/mL (≈ 146 µM) | – | –
O=C(Cn1cc(-c2ccc(F)cc2F)nn1)NC12CC3CC(CC(C3)C1)C2 | 3.07 | 50 µg/mL (≈ 134 µM) | – | –
O=C(Cn1cc(C2(O)CCCC2)nn1)NC12CC3CC(CC(C3)C1)C2 | 1.51 | 50 µg/mL (≈ 145 µM) | – | –
O=C(Cn1cc(-c2ccc([N+](=O)[O-])cc2)nn1)NC12CC3CC(CC(C3)C1)C2 | – | 50 µg/mL (≈ 131 µM) | – | –
CCCCCc1cn(CC(=O)NC23CC4CC(CC(C4)C2)C3)nn1 | 3.1 | 50 µg/mL (≈ 151 µM) | – | –
O=C(Cn1cc(-c2ccc(C(F)(F)F)cc2)nn1)NC12CC3CC(CC(C3)C1)C2 | 3.68 | 50 µg/mL (≈ 124 µM) | – | –
COc1cccc(-c2cn(CC(=O)NC34CC5CC(CC(C5)C3)C4)nn2)c1 | 2.63 | 25 µg/mL (≈ 68.2 µM) | – | –
CCCCc1cn(CC(=O)NC23CC4CC(CC(C4)C2)C3)nn1 | 2.68 | 50 µg/mL (≈ 158 µM) | – | –
O=C(Cn1cc(CCCO)nn1)NC12CC3CC(CC(C3)C1)C2 | 0.61 | 6.25 µg/mL (≈ 19.6 µM) | 20.7% | > 15
O=C(Cn1cc(C2(O)CCCCC2)nn1)NC12CC3CC(CC(C3)C1)C2 | 1.93 | 6.25 µg/mL (≈ 17.4 µM) | 17.5% | > 15
CC(=O)c1ccc(C)cc1OCc1cn(CC(=O)NC23CC4CC(CC(C4)C2)C3)nn1 | 2.55 | 50 µg/mL (≈ 118 µM) | – | –
O=C(Cn1cc(-c2ccccc2)nn1)NC12CC3CC(CC(C3)C1)C2 | 2.75 | 50 µg/mL (≈ 149 µM) | – | –
COc1ccc2cc(-c3cn(CC(=O)NC45CC6CC(CC(C6)C4)C5)nn3)ccc2c1 | 3.63 | 50 µg/mL (≈ 120 µM) | – | –
O=C(Cn1cc(-c2ccc(F)c(F)c2)nn1)NC12CC3CC(CC(C3)C1)C2 | 3.07 | 50 µg/mL (≈ 134 µM) | – | –
COc1ccc(-c2cn(CC(=O)NC34CC5CC(CC(C5)C3)C4)nn2)c(C)c1 | 3.12 | 50 µg/mL (≈ 131 µM) | – | –
NC(=O)c1cnccn1 [PYRAZINAMIDE] | – | 50 µg/mL (≈ 406 µM) | – | –
CCCCCc1ccc(-c2cn(CC(=O)NC34CC5CC(CC(C5)C3)C4)nn2)cc1 | 4.91 | 6.25 µg/mL (≈ 15.4 µM) | 18.7% | > 15
CC[C@@H](CO)NCCN[C@@H](CC)CO [ETHAMBUTOL] | – | 3.13 µg/mL (≈ 15.3 µM) | – | –
O=C(Cn1cc(CCc2ccccc2)nn1)NC12CC3CC(CC(C3)C1)C2 | 3.03 | 50 µg/mL (≈ 137 µM) | – | –
NNC(=O)c1ccncc1 [ISONIAZID] | – | 0.1 µg/mL (≈ 0.729 µM) | – | –
O=C(Cn1cc(-c2ccc(Cl)c(Cl)c2)nn1)NC12CC3CC(CC(C3)C1)C2 | 3.87 | 50 µg/mL (≈ 123 µM) | – | –
CCCCCCc1cn(CC(=O)NC23CC4CC(CC(C4)C2)C3)nn1 | 3.52 | 50 µg/mL (≈ 145 µM) | – | –
O=C(Cn1cc(-c2cc3ccccc3c3ccccc23)nn1)NC12CC3CC(CC(C3)C1)C2 | 4.75 | 3.12 µg/mL (≈ 7.15 µM) | 20.1% | > 15
